PubChem BioAssay AID248 (DTP/NCI, 2004)
Inconclusive results and toxic doses are left out.

Test system: L1210 leukemia ip in BDF1 mice, survival T/C
Assay: NCI In Vivo Anticancer Drug Screen. Data for tumor model L1210 Leukemia (intraperitoneal) in B6D2F1 (BDF1) mice
Settings: endpoint: mean survival time, higher = longer survival
Summary of the method: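 Tumor cells were implanted, animals were treated, and survival was followed. The result divides the treated measurement by the vehicle-control measurement.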

[1] = dose: 100.0 mg/kg/injection, schedule: Q04DX003 (ip), vehicle: saline
[2] = dose: 100.0 mg/kg/injection, schedule: Q04DX003 (ip), vehicle: Klucel (hydroxypropylcellulose) (HPC)
[3] = dose: 200.0 mg/kg/injection, schedule: Q04DX003 (ip), vehicle: Klucel (hydroxypropylcellulose) (HPC)
[4] = dose: 400.0 mg/kg/injection, schedule: Q04DX003 (ip), vehicle: Klucel (hydroxypropylcellulose) (HPC)
[5] = dose: 100.0 mg/kg/injection, schedule: Q01DX009 (ip), vehicle: Klucel (hydroxypropylcellulose) (HPC)

In the case of `NC(N)=N/N=C/C(Cl)(Cl)Cl`, the T/C (dose: 15.0 mg/kg/injection, schedule: Q01DX Z (ip), vehicle: saline) is reported as 87 % of control, the T/C (dose: 30.0 mg/kg/injection, schedule: Q01DX Z (ip), vehicle: saline) is reported as 103 % of control and the T/C (dose: 60.0 mg/kg/injection, schedule: Q01DX Z (ip), vehicle: saline) is reported as 95 % of control. The T/C (dose: 60.0 mg/kg/injection, schedule: Q01DX Z (oral), vehicle: saline) was 97 % of control, the T/C (dose: 120.0 mg/kg/injection, schedule: Q01DX Z (oral), vehicle: saline) was 97 % of control and the T/C (dose: 240.0 mg/kg/injection, schedule: Q01DX Z (oral), vehicle: saline) was 95 % of control. The T/C (dose: 480.0 mg/kg/injection, schedule: Q01DX Z (oral), vehicle: saline) was 98 % of control.
`CN1NC(=O)CC1c1ccccc1` (stereo not given) was tested, and the T/C (dose: 100.0 mg/kg/injection, schedule: Q04DX002 (ip), vehicle: Klucel (hydroxypropylcellulose) (HPC)) was 93 % of control, the T/C (dose: 200.0 mg/kg/injection, schedule: Q04DX002 (ip), vehicle: Klucel (hydroxypropylcellulose) (HPC)) was 97 % of control and the T/C (dose: 400.0 mg/kg/injection, schedule: Q04DX002 (ip), vehicle: Klucel (hydroxypropylcellulose) (HPC)) was 100 % of control.
For `CCOC(=O)CN=NNc1[nH]ncc1C(N)=O`, the T/C (dose: 100.0 mg/kg/injection, schedule: Q01DX001 (ip), vehicle: other) was 102 % of control, the T/C (dose: 100.0 mg/kg/injection, schedule: Q01DX009 (ip), vehicle: saline with Tween-80) was 115 % of control and the T/C (dose: 100.0 mg/kg/injection, schedule: Q04DX003 (ip), vehicle: other) was 101 % of control. The T/C (dose: 200.0 mg/kg/injection, schedule: Q01DX001 (ip), vehicle: other) was 104 % of control, the T/C (dose: 200.0 mg/kg/injection, schedule: Q01DX009 (ip), vehicle: saline with Tween-80) was 115 % of control and the T/C (dose: 200.0 mg/kg/injection, schedule: Q04DX003 (ip), vehicle: other) was 113 % of control. The T/C (dose: 400.0 mg/kg/injection, schedule: Q01DX001 (ip), vehicle: other) was 105 % of control, the T/C (dose: 400.0 mg/kg/injection, schedule: Q01DX009 (ip), vehicle: saline with Tween-80) was 116 % of control and the T/C (dose: 400.0 mg/kg/injection, schedule: Q04DX003 (ip), vehicle: other) was 104 % of control.
In the case of `CN(CCC#N)C(=O)Nc1ccccc1`, the T/C (dose: 100.0 mg/kg/injection, schedule: Q01DX Z (ip), vehicle: methylcellulose (MC)) is reported as 103 % of control and the T/C (dose: 200.0 mg/kg/injection, schedule: Q01DX Z (ip), vehicle: methylcellulose (MC)) is reported as 95 % of control.
In the case of `COc1ccccc1C(=S)N1CCCCC1`, the T/C [1] is reported as 97 % of control, the T/C (dose: 200.0 mg/kg/injection, schedule: Q04DX003 (ip), vehicle: saline) is reported as 89 % of control and the T/C (dose: 400.0 mg/kg/injection, schedule: Q04DX003 (ip), vehicle: saline) is reported as 92 % of control.
For `OC1c2ccccc2C(c2ccccc2)C1c1ccccc1` (stereo not given), the T/C (dose: 200.0 mg/kg/injection, schedule: Q04DX003 (ip), vehicle: saline with Tween-80) was 87 % of control and the T/C (dose: 400.0 mg/kg/injection, schedule: Q04DX003 (ip), vehicle: saline with Tween-80) was 90 % of control.
For `Fc1cccc2ccc(Br)cc12`, the T/C [2] was 100 % of control, the T/C [3] was 100 % of control and the T/C [4] was 106 % of control.
For `C1=C(c2ccccc2)CCCC1`, the T/C [5] was 92 % of control, the T/C [2] was 106 % of control and the T/C (dose: 200.0 mg/kg/injection, schedule: Q01DX009 (ip), vehicle: Klucel (hydroxypropylcellulose) (HPC)) was 95 % of control. For the same compound, the T/C [3] was 100 % of control, the T/C (dose: 400.0 mg/kg/injection, schedule: Q01DX009 (ip), vehicle: Klucel (hydroxypropylcellulose) (HPC)) was 109 % of control and the T/C [4] was 92 % of control.
With `Nc1nc(Cl)nc2c1ncn2C1OC(CO)C(O)C1O` (stereo not given) the T/C (dose: 25.0 mg/kg/injection, schedule: Q01DX009 (ip), vehicle: Klucel (hydroxypropylcellulose) (HPC)) was 102 % of control, the T/C (dose: 37.5 mg/kg/injection, schedule: Q01DX009 (ip), vehicle: saline with Tween-80) was 113 % of control and the T/C (dose: 50.0 mg/kg/injection, schedule: Q01DX001 (ip), vehicle: carboxymethylcellulose (CMC)) was 93 % of control. For the same compound, the T/C (dose: 50.0 mg/kg/injection, schedule: Q01DX009 (ip), vehicle: Klucel (hydroxypropylcellulose) (HPC)) was 114 % of control, the T/C (dose: 50.0 mg/kg/injection, schedule: Q04DX003 (ip), vehicle: saline) was 108 % of control and the T/C (dose: 100.0 mg/kg/injection, schedule: Q01DX001 (ip), vehicle: carboxymethylcellulose (CMC)) was 96 % of control. For the same compound, the T/C (dose: 100.0 mg/kg/injection, schedule: Q01DX001 (ip), vehicle: saline) was 92 % of control, the T/C [5] was 123 % of control and the T/C (dose: 100.0 mg/kg/injection, schedule: Q01DX009 (ip), vehicle: saline) was 156 % of control. For the same compound, the T/C [1] was 113 % of control, the T/C (dose: 200.0 mg/kg/injection, schedule: Q01DX001 (ip), vehicle: carboxymethylcellulose (CMC)) was 98 % of control and the T/C (dose: 200.0 mg/kg/injection, schedule: Q01DX001 (ip), vehicle: saline) was 103 % of control. The T/C (dose: 225.0 mg/kg/injection, schedule: Q01DX009 (ip), vehicle: saline) was 121 % of control, the T/C (dose: 300.0 mg/kg/injection, schedule: Q04DX003 (ip), vehicle: saline) was 153 % of control and the T/C (dose: 400.0 mg/kg/injection, schedule: Q01DX001 (ip), vehicle: carboxymethylcellulose (CMC)) was 118 % of control.
